These results are taken from patent US7943586B2, “Antineoplastic agents targeted via glut transporters” (The Trustees of the University of Pennsylvania, priority 2003, dated 2011).

In one data set the test system is 9L glioma cells. Nature of the data set: Confocal microscopy of uptake and localization in 9L glioma cells, with or without D-glucose. It is filed as cell-based, rat. Particulars: for subcellular localization in 9L glioma cells: 100 μM Pyro-2DG with 10 μg/ml Rhodamine-123, 15 min post-incubation; for uptake / localization in 9L glioma cells / effect of D-glucose on uptake / localization in 9L glioma cells: 50 μM, 30 min, 37° C.; for effect of D-glucose on uptake / localization in 9L glioma cells: 50 mM D-glucose. As for the experimental part: Confocal Microscopic Studies: 9L glioma cells were grown for 5 days in 4-well Lab-Tek chamber slides (Naperville, Ill.). Before the cell experiments, the culture medium was replaced by preincubation medium (medium with 1% (w/v) BSA instead of FBS). The cells were washed three times with preincubation medium (for 15, 15, and 30 min), and cultured in this medium for a further 20 hours. Experiments were started, after two quick washes with preincubation medium, by the addition of preincubation medium containing the indicated amounts of Pyro-2DG and/or D-Glucose. After 30 minutes incubation at 37° C., the cells were washed five times with ice-cold PBS containing 0.8% BSA, two times with PBS alone, and fixed for 20 minutes with 2% formaldehyde in PBS at room temperature. Then the chamber slides were mounted and sealed for confocal microscopic analysis.
9L glioma cells, obtained from Department of Radiation Oncology at University of Pennsylvania, were cultured in Modified Eagle's Medium (NEM) supplemented with 15% newborn calf serum (NCS), 100 U/ml penicillin-streptomycin. Murine melanoma B16 cells, obtained from Dr. Theo van Berkel's laboratory at the University of Leiden, Netherlands, were cultured in Dulbeco's modified Eagle's medium (DMM) supplemented with 10% fetal bovine serum (FBS) and 100 U/n-d penicillin-streptomycin Cells were grown at 37° C. in an atmosphere of 5% CO2 in a humidified incubator. Cells were grown for 5 days in 4-well Lab-Tek chamber slides (Naperville, Ill.) before the experiment. Indicated amounts of NIRF-2DGs with or without D-Glucose and Rbodarninc-123 were incubated with 9L glioma cells/B16 melanoma cells at 37° C. for 30 min after 3 washes with Dulbecco's Phosphate Buffered Saline (D-PBS). After incubation, the cells were washed five times with ice-cold PBS and Fixed for 20 minutes with 2% formaldehyde in PBS at room temperature. Then the chamber slides were mounted and sealed for confocal niicroscopic analysis. Confocal aticroscopic images were obtained with TCS SPII laser scanning confocal microscope (LSCM) (Heidelber, Germany).

Data set [1] deals with AR42J tumors (pancreatic acinar carcinoma). Nature of the data set: In vivo NIR phased array optical imaging of submerged AR42J tumors in nu/nu mice. Details: species or system mouse. Conditions: 3.5 hours after tail vein injection of 200 μL, tumor 1.5 cm deep. The text has this: In vivo NIR optical imaging system: To image and localize subsurface fluorochrome labeled tumors, an NLR imaging system utilizing diffusion photons (Patterson, M. S.; Chance, B.; Wilson, B. C., Time resolved reflectance and transmittance for the non-invasive measurement of tissue optical properties. Applied Optics 1989, 28, 2331-2336.
Fishkin, J. B.; Gratton, E., Propagation of photon-density waves in strongly scattering media containing an absorbing seni-infinite plane bounded by a straight edge. Journal of the Optical Society of America A 1993, 10, 127-140.) has been developed. The in vivo fluorescence optical imaging system consists of a pair of laser diodes operating at 780 nm. […]
Intes, X.; Chen, Y.; Li, X. D.; Chance, B., Detection limit enhancement of fluorescent heterogeneities in turbid media by dual-interfering excitation. […] A 3-mm-in-diameter fiber bundle collects the fluorescence signal from the fluorophore taken by in the tumor. […] The fluorescence signal is then detected by the photomultiplier tube (PMT) and demodulated by the 50 MD receiver to obtain the amplitude and phase information. […] (Chen, Y.; Zheng, G.; Zhang, Z. H.; Blessington, D.; Zhang, M.; Li, H.; Iiu, Q.; Zhou, L.; Intes, X.; Achilefu, S.; Chance, B., Metabolism-enhanced tumor localization by fluorescence imaging: in vivo animal studies. Optics Letters 2003, 28, (21), 2070-2072). […]

Data set [2] is described as follows: Water solubility / miscibility of Pyro-2DG. It is filed as physicochemical.
The next data set deals with 9L glioma. It is filed as in vivo, rat. The protocol: Animals: Rat 9L glioma was implanted on the flanks of male Fisher 344 rats (150 -200 g) via subcutaneous injection of 0.1 mL, ˜10^6 9L glioma cells. Within ten days, tumors grew to the desired size of 1 cm in diameter.
After not feeding animals for 24 hours, the rats were anaesthetized via intraperitoneal injection of Ketamine (75 mg/kg) and Xylazine (10 mg/kg). Pyro-2DG (2 mL, concentration: 0.25 mg/mL) was injected via tail vein infusion over a period of 1 hour (dose: 2.5 mg/kg). Thirty minutes later, the rats were anesthetized again and subjected to PDT.
PDT Protocol: A “point treatment” protocol was designed for evaluating PDT response of Pyro-2DG. PDT was carried out using a KTP YAG pumped dye module (Laserscope, San Jose, Calif.) tuned to produce 670 nm light. Light delivery was through a 1 mm fiber to create a treatment spot of 0.96 mm in diameter when the fiber was held closely adjacent to the tumor. The light field was fixed in position at the center of the tumor by mounting the fiber in the center of a circular plate which was glued to the anesthetized animal. The light was delivered at a fluence rate of 75 mW/cm^2 to a total dose of 175 J/cm^2. Laser power output was measured with a power meter (Coherent, Auburn, Calif.).
Fluorescence Imaging of Tumors (Quistorff, B., Haselgrove, J. C., and Chance, B. (1985) High spatial resolution readout of 3-D metabolic organ structure: an automated, low-temperature redox ratio-scanning instrument. Anal. Biochem. 148, 389-400; Gu, Y. Q., Qian, Z. Y., Chen, J. X., Blessington, D., Ramanujam, N., and Chance, B. (2002) High-resolution three-dimensional scanning optical image system for intrinsic and extrinsic contrast agents in tissue. Rev. Sci. Instruments 73, 172-178; Ramanujam, N., Richards-Kortum, R., Thomsen, S., Mahadevan-Jansen, A., Follen M., and Chance B. (2001) Low temperature fluorescence imaging of freeze-trapped human cervical tissues. Opt. Express 8, 335-343): Immediately after PDT, animals were immersed in pre-cooled isopentane (−150° C.) and transferred to liquid nitrogen (−196° C.) 5 minutes later. Tumors were then surgically excised, embedded in a mixture of ethanol-glycerol-water (freeze point: −30° C.), and mounted at low temperature for 3D surface fluorometric scanning. […] The fluorescence signal was automatically digitized and recorded on a PC. The redox ratio of FP/(FP+PN) was calculated with MATLAB.
A “point treatment” protocol for evaluating PDT response of Pyro-2DG was designed. […] Based on the absorption and emission maxima of Pyro-2DG (λex=665 nm; λem=720 nm), the 9L tumor was treated with 670 nm laser light, and a 700 nm long pass filter was incorporated into the 3D fluorescence scanner for collecting the Pyro-2DG fluorescence at 720 nm. […]

Data set [3] is described as follows: Biodistribution in organs of a normal Fisher 344 rat by Cryo-imager. The class given is in vivo. Conditions: 1 hour after intravenous administration, preliminary. The protocol:
FIG. 9. Pyro-2DG uptake in different organs of a Fisher 344 rat after 1 h tail vein infusion of 2 ml of 2.5 mg/kg Pyro-2DG. Liver (top left), kidney (bottom left), spleen (bottom middle) and brain (bottom right). Images of the frozen liver and of the control liver (no Pyro-2DG), respectively, appear in the top middle and right hand panels.
In order to determine the biodistribution of the Pyro-2DG, a normal Fisher 344 rat was sacrificed and different organs were scanned for Pyro-2DG fluorescence with Cryo-imager 1 hour after Pyro-2DG was intravenously administered.

Setting [4] is: after PDT, 670 nm, 75 mW/cm^2, 175 J/cm^2.

For “Rhodamine 123 [Rhodamine-123, reference compound]”, the “subcellular localization in 9L glioma cells” value in the data set with 9L glioma cells was “localize in mitochondria”.
As to pyropheophorbide a [reference compound], in the data set on 9L glioma cells, the “uptake / localization in 9L glioma cells” value was “concentration dependent” and the “effect of D-glucose on uptake / localization in 9L glioma cells” value is “not inhibited by D-glucose”.
On to `CC1(C)C(/C=C/C=C/C=C/C=C2\N(CCCCS(=O)(=O)O)c3ccc4ccccc4c3C2(C)C)=[N+](CCCCS(=O)(=O)[O-])c2ccc3ccccc3c21` [ICG, Indocyanine Green, reference compound], for which, in data set [1], the “enhancement of the tumor region” value is “no significant enhancement”.
On the same count and under the same terms, in the case of “2-deoxyglucose conjugate of Bacteriopurpurin-18-N-3′-(isothiocyanate)-propylimide [BChlPP-2DG]” it was “enhanced”.
For “Pyropheophorbide-2-deoxyglucosamide [Pyro-2DG]”, the miscibility with water result in data set [2] (formulation with detergent (1% Tween 80)) is given as “completely miscible with water”. Besides, the water solubility result in data set [2] (without detergent) is recorded as “only partially water-soluble”. Besides, in the data set on 9L glioma cells, the “uptake / localization in 9L glioma cells” value is “localizes within 9L glioma cells”, the “effect of D-glucose on uptake / localization in 9L glioma cells” value was “competitively inhibited by D-glucose” and the “subcellular localization in 9L glioma cells” value is on record as “localize in mitochondria”. In the data set with 9L glioma (setting [4]), the “NADH fluorescence of irradiated spot” value is listed as “significant decrease” and the “PP fluorescence of irradiated spot” value is “marked increase”. For the same compound, in the data set with 9L glioma (after PDT, irradiated region), the “redox ratio of the tumor FP/(FP+PN)” value was “dramatic increase”. In addition, the “effect on mitochondrial activities (redox state) of the tumor” value in the data set on 9L glioma (rat, in vivo) is reported as “no effect on the mitochondrial activities of the tumor”. In data set [3], the accumulation in liver entry is on record as “accumulated predominantly in liver”; the “accumulation in spleen and kidney” value is “lesser accumulation in spleen and kidney”; the “crossing of the blood-brain barrier” value was “does not cross the blood-brain barrier”.
